Measured values as given in article PMC10652874, “Investigation into the mechanism of action of the antimicrobial peptide epilancin 15X” (Frontiers in Microbiology, 2023).

Tests used:
[1] = test system: DNA biosynthesis in S. carnosus TM300; assay: Macromolecular synthesis assay: 14C-thymidine incorporation into DNA; format: cell-based, Staphylococcus carnosus; details: S. carnosus TM300, 2× MIC, three independent experiments
Description: (§1) Radiolabel incorporation experiments were carried out similarly as previously described but using S. carnosus ([Wu et al., 2019]). The OD600 of parallel nonradioactive cultures was measured at each time point to normalize the measured radioactivity and minimize effects due to cell death and growth inhibition. The radiolabeled reagents and their corresponding positive and negative antibiotic controls were as follows. […] All experiments were conducted independently three times.
(§2) Figure S3. Thre e in de pen den t ex perime nts of incorporation of (A) 14C- acetic acid into fatty acids, (B) 14C- thymi din e into D NA, (C) 3H-uridi ne into RNA, (D) 14C- lab el ed ami no acids into protei n, and (E) 14C- label ed GlcNAc into cell w all in S. carnosus TM300 cells treated with vario u s antimicro bia l agents. T he p ercent i nco rpo ratio n at 0 min was measured after incubati ng the cel l cultur e with 0.8 μCi/mL radioactive precursors for 15 min. Then 0.5x, 1x, 2x, or 4x MIC epilanci n 15X and 2x MIC controls were added to the cell cultur e (t=0), and t he percent incorporation was measur ed ov er time. Positive controls a re gr een and negative controls are black (cells o nly) an d blu e (co mpo und w ith mo d e o f actio n unr elate d to th e a ssay i n que stio n). […]

[2] = test system: protein biosynthesis in S. carnosus TM300; assay: Macromolecular synthesis assay: 14C-L-amino acids incorporation into protein; format: cell-based, Staphylococcus carnosus; details: S. carnosus TM300, 2× MIC, three independent experiments
Description: as §1, §2

B. subtilis ATCC 6633 = assay: Fluorescence and bright field (Airyscan) microscopy; format: cell-based, Bacillus subtilis
Description: Standard microscope slides coated with poly-D-lysine (R&D Systems, 34–392 − 000101) overnight were washed with water and sterilized in ethanol. Overnight bacterial culture was centrifuged at 4,500 ×g and the pellet was resuspended gently three times in fresh PBS to remove the media background. Then 20 μL of cell culture in PBS and 180 μL of PBS were loaded on each slide and incubated at room temperature for 30 min. Next, 1 mL of PBS was used to wash the slides at least five times to remove unadhered cells. A final concentration of 200 nM epilancin 15X-TAMRA in 200 μL of PBS was applied to each slide and incubated at room temperature for 30 min. PBS was used to wash the slides at least five times to wash away unbound Epilancin 15X. A final concentration of 10% formaldehyde (Thermo Scientific, PI28906) and 2.5% glutaraldehyde (Fisher Chemical, O2957–1) in PBS was applied to each slide and incubated for 30 min. Three times 1 mL of PBS was applied to wash away excess fixing solution. A drop of ProLong Glass Antifade Mountant (Invitrogen, P36982) was applied to each slide, covered with a glass coverslip (Ibidi, NC0601315), and dried overnight protected from light. All micrographs were captured using a Zeiss LSM 880 Airyscan microscope (Carl R. Woese Institute for Genomic Biology, UIUC). […]

[3] = Liposome permeabilization (sulforhodamine B dye leakage) assay; format: biochemical
Description: For unilamellar liposome preparation, a total of 100 μL of 30 mM 1,2-dioleoyl-sn-glycero-3-phosphocholine (DOPC; Avanti Polar Lipids) and the following lipids dissolved in chloroform were mixed in a glass tube in the appropriate ratio: POPG (Avanti Polar Lipids), POPE (Avanti Polar Lipids), POPS (Avanti Polar Lipids), and purified S. aureus LTA (InvivoGen, catalog # tlrl-pslta). The solvent was evaporated under a stream of nitrogen gas and the glass vial was placed in a vacuum desiccator overnight. A total of 1 mL HEPES-Buffered Saline (HBS) composed of 5 mM HEPES (pH 7.6) and 150 mM NaCl, and 30 mM sulforhodamine B (SRB) was added to each vial. The lipid solution was vortexed for 10 min and lipids were hydrated by five freeze–thaw cycles with liquid N2. The lipid solution was diluted with HBS buffer to 3 mL and the solution was passed 29 times through a mini extruder (Avanti Polar Lipids) with a filter of […] pore diameter to form lipid vesicles of homogeneous size. The extruded solution was passed through Sephadex 50 resin to remove the free sulforhodamine B (liposomes eluted faster than the dye). The size of the liposomes was tested using dynamic light scattering (DLS, Malvern Zetasizer, Dr. Catherine J. Murphy lab, Department of Chemistry, UIUC) and analyzed using Zetasizer software. The DLS data quality was interpreted by the instrument through its embedded algorithm to confirm the data quality. The polydispersity index (PDI), which measures the size distributions was used to monitor the quality of the liposomes. The small PDI indices obtained from DLS readings indicate that the liposomes were monodisperse ([Farkas and Kramar, 2021]). The total lipid concentration was measured with NMR spectroscopy using a reported method ([Hein et al., 2016]). The vesicles were stored at 4°C and used within 1–2 days.
For the dye leakage assay, 100 μL SRB-loaded liposomes (80 μM lipid; 100–200 nm size) were placed in each well in a 96-well microplate. Fluorescence of SRB-loaded liposomes was monitored over time on a Synergy H4 Hybrid Multi-Mode Microplate Reader (BioTeK) using λEx at […]. To each well, a different concentration of peptides or 0.02% triton X-100 was added 5 min after adding liposomes. Liposomes supplied with water were treated as the negative control. The fluorescence emission was measured every 15 s for 2 h. Fluorescence counts were recorded as % leakage and plotted as a function of time. The concentration of epilancin 15X where the SRB leaked from the liposomes reached half of the triton X-100 leakage was recorded as C1/2, and C1/2 values were plotted against DOPC and supplemented lipid concentrations.

Bacillus megaterium = details: ref Wang et al., 2023; cited from earlier work
Text: (§3) Recent studies have shown that epilancin 15X activity varies depending on the indicator strain, with bacteriostatic activity against Staphylococcus simulans and Micrococcus flavus but bactericidal activity against Bacillus megaterium ([Wang et al., 2023]).

Micrococcus flavus = details: ref Wang et al., 2023; cited from earlier work
Text: as §3

Staphylococcus simulans = details: ref Wang et al., 2023; cited from earlier work
Text: as §3

Epilancin 15X
DNA biosynthesis (14C-thymidine incorporation) [1]: considerably stronger effect than that observed with the respective negative controls
protein biosynthesis (14C-L-amino acid incorporation) [2]: considerably stronger effect than that observed with the respective negative controls
aggregation phenotype of cells (brightfield) (B. subtilis ATCC 6633): Aggregation and chaining of cells was observed
EC50 ([3]; DOPC liposomes supplemented with POPE, highest concentration tested 64 µM, read-out: C1/2 (concentration giving 50% of triton X-100 leakage)): > 64 µM
fluorescence emission from SRB dye leakage ([3]; DOPC liposomes with negatively charged lipids LTA, POPS, POPG): increased
SRB dye leakage from DOPC liposomes ([3]; DOPC only, 80 μM lipid, epilancin 15X up to 64 μM, fluorescence over 2 h): not detected
C1/2 values as a function of supplemented lipid concentration ([3]; negatively charged lipids S. aureus LTA, POPG, POPS): negative slope
SRB dye leakage from DOPC liposomes doped with POPE ([3]; neutral lipid POPE): not detected
liposome leakage as a function of supplemented lipid concentration ([3]; neutral lipids POPC and POPE): no change in liposome leakage
type of antimicrobial activity (Bacillus megaterium): bactericidal
type of antimicrobial activity (Micrococcus flavus): bacteriostatic
type of antimicrobial activity (Staphylococcus simulans): bacteriostatic
